From US20220184072A1 (priority 2019, published 2022)
Several values for one entry are separate records, joined by “and”; a condition that tells them apart may be missing. Equal entries are not always repeated. Where two headings read alike, the source gives them in different places.

Legend:
C57 mice = conditions: mouse, in vivo
ZFD rats [1] = experiment: ZFD rat model, manual von Frey (tactile); assay type: in vivo; set-up: unit not given here
NR2B = experiment: CNS phosphoprotein profile, NR2B; assay type: in vivo; conditions: mice nucleus accumbens, 3 mg/kg, 30-60 minutes
Protocol: A comprehensive molecular phosphorylation study is also carried out to examine the central nervous system (CNS) profile of the compound of Example 1. The extent of protein phosphorylation for selected key central nervous system proteins is measured in mice nucleus accumbens.
Mice were killed 30 minutes to 2 hours post-injection by focused microwave cranial irradiation, which preserves brain phosphoprotein as it exists at the time of death. Nucleus accumbens was then dissected from each mouse brain, sliced and frozen in liquid nitrogen. Samples were further prepared for phosphoprotein analysis via SDS-PAGE electrophoresis followed by phosphoprotein-specific immunoblotting, as described in Zhu H, et al., Brain Res. 2010 Jun. 25; 1342:11-23. Phosphorylation at each site was quantified, normalized to total levels of the protein (non-phosphorylated), and expressed as percent of the level of phosphorylation in vehicle-treated control mice.

STZ-diabetic rats [2] = experiment: STZ-rat model, tactile stimuli (von Frey filaments); assay type: in vivo
Protocol: (§1) The compound of Example 1 is also tested in an STZ-rat model of neuropathic pain. Briefly, adult female rats are made diabetic by treatment with streptozotocin (STZ), an alkylating neoplastic agent which is particularly toxic to the insulin-producing beta cells of the pancreas. The resulting type-I diabetes in the rats leads to the development of diabetic neuropathy over a 3 to 6-week period. […] Once diabetic neuropathy has been induced, the rats may be treated to determine the analgesic effect of compounds.
Paw tactile response threshold is a clinical assessment of allodynia to light touch. It can be measured using manual von Frey filaments (as described in Otto et al., Pain, 101:187-92 (2003). A series of von Frey filaments with logarithmically increasing stiffness are used, and the rats' response to each filament is observed. The results are used to calculate a 50%-withdrawal threshold (an amount of stiffness in the filament resulting in a 50% probability of withdrawal of the rat's paw).
This test is performed using the von Frey filaments as described above.

STZ-diabetic rats [3] = experiment: STZ-rat model, mechanical (pressure) stimuli; assay type: in vivo
Protocol: as §1
Paw mechanical response threshold is also a clinical assessment of allodynia to light touch, but it relies on the observed response to pressure (force) applied to a paw.
This test is performed by measuring the static applied force threshold (pressure) for paw removal, as described above.

ZFD rats [4] = experiment: ZFD rat model, paw formalin test; assay type: in vivo; conditions: s.c. or i.t., at the end of the study
Excerpt: Paw formalin test: This test enables discrimination of pain driven by primary afferent input (phase 1) versus spinal sensitization and amplifications of primary afferent input (phase 2). There is, however, no clinical equivalent to this test. The method used here is described in detail in Calcutt (2004), supra.

O=C1CN2c3c(cccc3[C@@H]3CN(CCCOc4ccc(F)cc4)CC[C@@H]32)N1 [Example 1, (6bR,10aS)-8-(3-(4-fluorophenoxy)propyl)-6b,7,8,9,10,10a-hexahydro-1H-pyrido[3′,4′:4,5]pyrrolo[1,2,3-de]quinoxalin-2(3H)-one]
Mean Behavior Rating (0-4) (C57 mice; po, 3 mg/kg): 0.9 and 0.8 and 1.5
Mean Behavior Rating (0-4) (C57 mice; sc, 1 mg/kg): 1.0 and 1.9 and 1.1
Manual von Frey, threshold for paw withdrawal (ZFD rats [1]; Control rats, 10 μg i.t., 0 hr): 11.90
Manual von Frey, threshold for paw withdrawal (ZFD rats [1]; Control rats, 10 μg i.t., 1 hr): 13.90
Manual von Frey, threshold for paw withdrawal (ZFD rats [1]; Control rats, 10 μg i.t., 2 hr): 14.14
Manual von Frey, threshold for paw withdrawal (ZFD rats [1]; Control rats, 10 μg i.t., 4 hr): 13.67
Manual von Frey, threshold for paw withdrawal (ZFD rats [1]; Control rats, 10 mg/kg s.c., 0 hr): 13.98
Manual von Frey, threshold for paw withdrawal (ZFD rats [1]; Control rats, 10 mg/kg s.c., 1 hr): 12.28
Manual von Frey, threshold for paw withdrawal (ZFD rats [1]; Control rats, 10 mg/kg s.c., 2 hr): 13.93
Manual von Frey, threshold for paw withdrawal (ZFD rats [1]; Control rats, 10 mg/kg s.c., 4 hr): 13.45
Manual von Frey, threshold for paw withdrawal (ZFD rats [1]; ZFD rats, 1 μg i.t., 0 hr): 2.06
Manual von Frey, threshold for paw withdrawal (ZFD rats [1]; ZFD rats, 1 μg i.t., 1 hr): 2.28
Manual von Frey, threshold for paw withdrawal (ZFD rats [1]; ZFD rats, 1 μg i.t., 4 hr): 4.25
Manual von Frey, threshold for paw withdrawal (ZFD rats [1]; ZFD rats, 3 μg i.t., 0 hr): 5.78
Manual von Frey, threshold for paw withdrawal (ZFD rats [1]; ZFD rats, 3 μg i.t., 1 hr): 9.68
Manual von Frey, threshold for paw withdrawal (ZFD rats [1]; ZFD rats, 3 μg i.t., 2 hr): 12.11
Manual von Frey, threshold for paw withdrawal (ZFD rats [1]; ZFD rats, 3 μg i.t., 4 hr): 7.01
Manual von Frey, threshold for paw withdrawal (ZFD rats [1]; ZFD rats, 10 μg i.t., 0 hr): 1.92
Manual von Frey, threshold for paw withdrawal (ZFD rats [1]; ZFD rats, 10 μg i.t., 1 hr): 8.53
Manual von Frey, threshold for paw withdrawal (ZFD rats [1]; ZFD rats, 10 μg i.t., 2 hr): 11.57
Manual von Frey, threshold for paw withdrawal (ZFD rats [1]; ZFD rats, 10 μg i.t., 4 hr): 4.77
Manual von Frey, threshold for paw withdrawal (ZFD rats [1]; ZFD rats, 1 mg/kg s.c., 1 hr): 2.61
Manual von Frey, threshold for paw withdrawal (ZFD rats [1]; ZFD rats, 1 mg/kg s.c., 2 hr): 1.70
Manual von Frey, threshold for paw withdrawal (ZFD rats [1]; ZFD rats, 1 mg/kg s.c., 4 hr): 2.07
Manual von Frey, threshold for paw withdrawal (ZFD rats [1]; ZFD rats, 3 mg/kg s.c., 0 hr): 2.22
Manual von Frey, threshold for paw withdrawal (ZFD rats [1]; ZFD rats, 3 mg/kg s.c., 1 hr): 6.48
Manual von Frey, threshold for paw withdrawal (ZFD rats [1]; ZFD rats, 3 mg/kg s.c., 2 hr): 10.15
Manual von Frey, threshold for paw withdrawal (ZFD rats [1]; ZFD rats, 10 mg/kg s.c., 0 hr): 1.71
Manual von Frey, threshold for paw withdrawal (ZFD rats [1]; ZFD rats, 10 mg/kg s.c., 1 hr): 6.97
Manual von Frey, threshold for paw withdrawal (ZFD rats [1]; ZFD rats, 10 mg/kg s.c., 2 hr): 13.47
Manual von Frey, threshold for paw withdrawal (ZFD rats [1]; ZFD rats, 10 mg/kg s.c., 4 hr): 9.25
NR2B phosphorylation at Tyr1472 (NR2B): no significant effect
50% withdrawal threshold (STZ-diabetic rats [2]; STZ-diabetic rats, 1 mg/kg s.c., 4 hours (peak)): about 4 g
50% withdrawal threshold (STZ-diabetic rats [2]; STZ-diabetic rats, 1 mg/kg s.c., 6 hours): about 3 g
50% withdrawal threshold (STZ-diabetic rats [2]; STZ-diabetic rats, 3 mg/kg s.c., 1 hours): about 6 g
50% withdrawal threshold (STZ-diabetic rats [2]; STZ-diabetic rats, 3 mg/kg s.c., 2 hours (peak)): ~8 g
50% withdrawal threshold (STZ-diabetic rats [2]; STZ-diabetic rats, 3 mg/kg s.c., 4 hours): about 3 g
50% withdrawal threshold (STZ-diabetic rats [2]; STZ-diabetic rats, 10 mg/kg s.c., 1 hour): about 9 g
50% withdrawal threshold (STZ-diabetic rats [2]; STZ-diabetic rats, 10 mg/kg s.c., 2 hours (peak)): about 10 g
50% withdrawal threshold (STZ-diabetic rats [2]; STZ-diabetic rats, 10 mg/kg s.c., 6 hours): about 3 g
50% withdrawal threshold (STZ-diabetic rats [2]; rat, in vivo, sc, 10 mg/kg): about 7 g
withdrawal force threshold (STZ-diabetic rats [3]; 1 mg/kg s.c., 4 hours (peak)): about 40 g
withdrawal force threshold (STZ-diabetic rats [3]; 1 mg/kg s.c., 6 hours): about 35 g
withdrawal force threshold (STZ-diabetic rats [3]; 3 mg/kg s.c., 2 hours (peak)): about 45 g
withdrawal force threshold (STZ-diabetic rats [3]; 3 mg/kg s.c., 6 hours): about 25 g
withdrawal force threshold (STZ-diabetic rats [3]; 10 mg/kg s.c., 1 hour): about 60 g
withdrawal force threshold (STZ-diabetic rats [3]; 10 mg/kg s.c., 2 hours to 4 hours): 45 to 50 g
withdrawal force threshold (STZ-diabetic rats [3]; 10 mg/kg s.c., 6 hours): about 35 g
pain responses in early or late phase of the formalin test (ZFD rats [4]): no effect
